For assay [1], the target named is T1, recombinant human PLA2G2A (sPLA2) (Homo sapiens, UniProt P14555).
T1 construct: purchased Creative BioMart PLA2G2A-669H
T1 sequence (P14555 21-144): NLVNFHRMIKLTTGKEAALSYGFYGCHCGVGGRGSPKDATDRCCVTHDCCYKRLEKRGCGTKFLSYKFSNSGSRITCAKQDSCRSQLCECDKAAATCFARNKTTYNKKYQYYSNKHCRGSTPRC
The assay can be described thus: Oleic acid release from phospholipid-loaded stenfilcon A lenses in ATF with and without sPLA2 (digestion assay, LCMS). In kind it is biochemical. The following applies: 35±2° C., 4 hours; for Oleic acid peak area in ATF + sPLA2: ATF with 50 ppm recombinant human PLA2G2A; for Oleic acid peak area in ATF + sPLA2 / Oleic acid peak area in ATF: 4 mm piece of loaded stenfilcon A lens, 100 μL; for Oleic acid peak area in ATF: ATF without sPLA2. The method, then:
The phospholipids shown in Table 1 were obtain from Avanti Polar Lipids. 3 mg/ml loading solutions of the phospholipids shown in Table 1 were prepared by adding 2.4 mL ethanol to 9 mg of phospholipid, sonicating (up to 15 minutes) then adding 0.6 mL DI water and sonicating again (up to 15 minutes) to dissolve the phospholipid.
Hydrated contact lenses made from stenfilcon A were washed three times in 3 mL purified water for 30 minutes each time. Each washed lens was placed in 3 mL of a phospholipid loading solution and incubated at room temperature with gentle shaking at 75 rpm for 3 hours. The loaded lenses were then rinsed and hydrated in several exchanges of DI water. The lenses were packaged in a buffered saline contact lens packaging solution and autoclaved.
An artificial tear fluid (ATF) was prepared by adding the first three ingredients listed in Table 2 to a clean class vial and then adding 30 mL of the fourth ingredient.
After autoclave each lens was removed from its package and place in a 6 mL glass vial containing 5 mL of the ATF at room temperature on a shaker at 125 rpm overnight to elute any free oleic acid that may be present in the lens.
Each lens was rinsed in a 6 ml glass vial containing a fresh aliquot of 5 mL ATF for 30 minutes prior to running the digestion assay.
A 50 ppm solution of sPLA2 was prepared in ATF by adding 200 μl ATF to a tube containing 10 μg recombinant human PLA2G2A (Creative BioMart, Cat. No. PLA2G2A-669H). The solution is referred to as ATF+sPLA2. Two 4 mm pieces were cut from each lens. One piece of each lens was placed in a tube with 100 μL ATF and the other piece was placed in a tube containing 100 μL ATF+sPLA2. The tubes were incubated at 35±2° C. for 4 hours with no shaking.
50 μl of the release media from each lens at T=4 hr was transferred to HPLC vials and 500 μl isopropanol (IPA) was added and mixed well. T=0 hr HPLC vials were also prepared (50 μl ATF+500 μl IPA). All vials were sonicated for 15 minutes and centrifuged. The supernatant was removed for LCMS injection.
The supernatants were injected on an LCMS instrument equipped with an ACQUITY UPLC BEH C18 […], 2.1 mm×15 cm column and running a mobile phase gradient from 65% A to 90% B at a flow rate of 0.35 mL/min with A=40% acetonitrile in water with 10 mM ammonium acetate and 0.2% (v/v) ammonium hydroxide, and B=10% acetonitrile in IPA with 10 mM ammonium acetate and 0.2% (v/v) ammonium hydroxide. The mass spec detector is run at negative electrospray mode. The peaks for oleic acid (OA) in the supernatants were measured (m/z trace=281.24). The ratio of OA peak area in ATF with and without sPLA2 was calculated.

The test system of assay [2] is sPLA2 enzymes found in human tears. The assay can be described thus: Susceptibility to digestion by sPLA2 enzymes found in human tears when present in a silicone hydrogel contact lens body. In kind it is biochemical. The following applies: phospholipid present in a silicone hydrogel contact lens body. The source says:
To achieve these and other advantages, and in accordance with the purposes of the present invention, as embodied and broadly described herein, the present invention, in part relates to a hydrogel contact lens comprising a polymeric lens body loaded with 2-oleoyl phospholipid. The 2-oleoyl phospholipid is advantageously susceptible to digestion by secretory phospholipase 2-acylhydrolase (sPLA2) enzymes found in human tears, especially group IIA secretory phospholipase 2-acylhydrolase (sPLA2-IIA). The 2-oleoyl phospholipid present in the contact lens body is advantageously susceptible to digestion by sPLA2 enzymes found in human tears, especially sPLA2-IIA when the 2-oleoyl phospholipid is present in the polymeric lens body of a silicone hydrogel contact lens, such as a stenfilcon A contact lens. […] For the avoidance of doubt, while the determination of whether a 2-oleoyl phospholipid is susceptible to digestion by sPLA2 enzymes may be carried out by loading the 2-oleoyl phospholipid to a stenfilcon A lens, the contact lens of the invention, including contact lenses comprising 2-oleoyl phospholipid that have been determined to be susceptible to digestion by sPLA2 enzymes, need not be stenfilcon A lenses and may be silicone hydrogel lenses of any formulation. […]

Where a name gives a salt, the structure may show the parent alone.

`CCCCCCCC/C=C\CCCCCCCC(=O)OC[C@H](COP(=O)([O-])OCC(O)CO)OC(=O)CCCCCCC/C=C\CCCCCCCC.[Na+]` (mixture of isomers) [DOPG, 1,2-dioleoyl-sn-glycero-3-phospho-(1′-rac-glycerol) (sodium salt)]: in assay [1], the “Ratio of OA peak area in ATF with and without sPLA2” value (from here on “Ratio … with and without sPLA2”) was 279; the “Oleic acid peak area in ATF + sPLA2” value came out at 9958; the “Oleic acid peak area in ATF” value is listed as 36.

For `CCCCCCCCCCCCCC(=O)OC[C@H](COP(=O)([O-])OCC[N+](C)(C)C)OC(=O)CCCCCCCCCCCCC` [DMPC, 1,2-dimyristoyl-sn-glycero-3-phosphocholine], the “Susceptibility to digestion by sPLA2 enzymes found in human tears” value in assay [2] is listed as “not be susceptible to digestion”.

Consider `CCCCCCCC/C=C\CCCCCCCC(=O)OC[C@H](COP(=O)([O-])OCC[N+](C)(C)C)OC(=O)CCCCCCC/C=C\CCCCCCCC` [DOPC, 1,2-dioleoyl-sn-glycero-3-phosphocholine, reference compound], for which, in assay [1], the “Ratio … with and without sPLA2” value came out at 1.2; the “Oleic acid peak area in ATF + sPLA2” value came to 125; the “Oleic acid peak area in ATF” value turned out to be 102.

`CCCCCCCC/C=C\CCCCCCCC(=O)OC[C@H](COP(=O)(O)OCCN)OC(=O)CCCCCCC/C=C\CCCCCCCC` [DOPE, 1,2-dioleoyl-sn-glycero-3-phosphoethanolamine]: in assay [1], the “Ratio … with and without sPLA2” value is on record as 4.6; the “Oleic acid peak area in ATF + sPLA2” value amounted to 2127; the “Oleic acid peak area in ATF” value amounted to 463.

With `CCCCCCCC/C=C\CCCCCCCC(=O)OC[C@H](COP(=O)(O)OC[C@H](N)C(=O)O)OC(=O)CCCCCCC/C=C\CCCCCCCC` [DOPS, 1,2-dioleoyl-sn-glycero-3-phospho-L-serine (sodium salt)], in assay [1], the “Ratio … with and without sPLA2” value is listed as 16.4; the “Oleic acid peak area in ATF + sPLA2” value worked out at 1437; the “Oleic acid peak area in ATF” value is listed as 88.
